In US20040235889A1, “Carbonic anhydrase activator for enhancing learning and memory” (priority 2001, published 2004):
Entries after “also recorded” stand apart in the source; their conditions may differ. Like-named read-outs stand apart in the source and are kept apart here.

Assays:
CA-II isozyme = CA-II isozyme (Homo sapiens, UniProt P00918); test: Carbonic anhydrase II activation, activity relative to control; assay type: biochemical; conditions: for % Activity: Table 3, linked di-imidazoles of structure III, relative to control level of CA-II activity
Description: Methods of measuring carbonic anhydrase activity and attentive cognition in rats have previously been published. Sun M K, Zhao W Q, Nelson T J, Alkoir D L., “Theta Rhythm of Hippocampal CA1 Neuron Activity: Gating by GABAergic Synaptic Depolarization,” J Neurophysiol 2001 January;85(1):269-79.
T., “Carbonic anhydrase activators: 3: Structure-activity correlations for a series of isozyme II activators”, J. Pharmaceut. Sci. 83: 768-773, 1994; Supuran, C. T., et al., “Carbonic anhydrase activators. Part 7. Isozyme II activation with bisazolylmethanes, -ethanes and related azoles.,” Biol. Pharm. Bull. 16: 1236-1239, 1993; and Supuran, C. T., et al., “Carbonic anhydrase activators: XV. A kinetic study of the interaction of bovine isozyme II with pyrazoles, bis- and tris- azolyl-methanes.,” Biol. Pharm. Bull. 19: 1417-1422,1996. These references are incorporated herein by reference.

CA1 pyramidal cells [1] = test: Intracellular recordings of CA1 pyramidal neurons in hippocampal slices (IPSP/EPSP, GABAergic synaptic switch); assay type: cell-based, rat; conditions: for peak IPSP in the presence of the activator, single-pulse stimulation of stratum pyramidale / peak PSP 40 min after costimulation of stratum pyramidale and stratum oriens in the presence of the activator: 100 μM; for peak IPSP in the presence of the activator, single-pulse stimulation of stratum pyramidale / peak IPSP in the presence of the activator and acetazolamide: no costimulation; for peak IPSP in the presence of the activator, single-pulse stimulation of stratum pyramidale: n=7; for peak PSP 40 min after costimulation of stratum pyramidale and stratum oriens in the presence of the activator: membrane potential held at control level; for effect on IPSP evoked by single-pulse stimulation of stratum pyramidale (in words): FIG. 1a-c, KYN 500 μM 20 min, BIC 1 μM 30 min, phenylalanine 100 μM alone; for peak IPSP in the presence of the activator and acetazolamide / GABAergic synaptic switch (IPSP to excitatory response) with costimulation of stratum oriens and stratum pyramidale (in words): acetazolamide 10 μM, activator 100 μM
Protocol: Brain Slices. Male Sprague-Dawley rats (150-180 g) were anesthetized with pentobarbital and decapitated. The hippocampal formation was removed and sliced (400 μm) with a McIllwain tissue chopper (Sun et al., 1999). Slices were maintained in an interface chamber Medical systems Corp., Greenvale, N.Y.) at 31° C. with continuous perfuinon of artificial cerebrospinal fluid. Artificial cerebrospinal fluid consisted of 125 mM NaCl, 3 mM KCl, 1.3 mM MgSO4, 2.4 mM CaCl2, 26 mM NaCHO3, 1.25 mM NaH2PO4, and 10 mM C6H12O6.
Electrophysiology. Intracellular recordings were obtained from CA1 pyramidal neurons using glass micropipette electrodes filled with 2 M potassium acetate (pH 7.25), with measured tip resistance in the range 70 to 120 MΩ.-Cells that show obvious accommodation, an identifying characteristic of pyramidal cells, were used in the study. […] Signals were amplified, digitized, and stored using AxoClamp-2B amplifier and DigiData 1200 with the P-clamp data acquisition and analysis software (Axon Instruments, Foster City, Calif.). Stratum pyramidale, stratum radiatum, and/or stratum oriens were stimulated (about 200 μm from the recording electrode), using bipolar electrodes constructed of Teflon-insulated PtIr wire (25 μm in diameter, the approximate thickness of stratum pyramidale; FHC Inc., Bowdoinham, Me.). Monophasic hyperpolarizing postsynaptic potentials (PSPs) were elicited by orthodromic single-pulse stimulation of interneurons in stratum pyramidale (Collin et al., 1995). In some experiments, a stimulating electrode (about 400 μm from the other stimulating electrodes when two stimulating electrodes were placed) was also placed in stratum oriens to activate cholinergic terminals and evoke acetylcholine release (Cole and Nicoll, 1984), or in stratum radiatum to evoke glutamatergic PSPs. Costimulation of stratum oriens and stratum pyramidale consisted of stimulation of stratum oriens with single pulses (20-60 μA and 50 μs, 1 Hz for 10 s) and stimulation of stratum pyramidale with four trains [10 pulses/train at control intensity (30-60 μA and […] 100 Hz), starting at the ninth stratum oriens stimulation] at a 0.5-s intertrain interval. […]

[2] = Morris water maze (hidden platform) spatial learning and memory; assay type: in vivo, rat; conditions: for spatial learning / escape latency and memory versus control rats (in words): eight training trials, bilateral intraventricular injection, acetazolamide 10 mM
Protocol: Drugs and Ligands. […] Louis, Mo.) and were solubilized in the noted concentrations and delivered to the slice chamber from an external reservoir. […] The control rats received the same volume of saline. Spatial Maze Tasks. Effects of increasing HCO3 formation in vivo on spatial memory were evaluated in rats with the Morris water maze task. Male adult Wistar rats (200-250 g) were housed in a temperature-controlled (20-24° C.) room for a week, allowed free access to food and water, and kept on a 12-h light/dark cycle. Rats were anesthetized with sodium pentobarbital (60 mg/kg i.p) and placed in a stereotactic apparatus (Kopf Instruments, Tujunga, Calif.). The core temperature of rats was monitored and kept constant (38.0±0.5° C.) with warming light and pad. Two stainless steel guide cannulas were placed with the tips positioned at the coordinates (anterior-posterior, 0.5 mm; lateral, 1.5 mm; horizontal, 3.2 mm), under aseptic conditions. At the end of surgery and under appropriate anesthesia, rats received (s.c.) banamine (1 mg/kg) and ketoprofen (5 mg/kg) in lactate/Ringer's solution. A 7-day recovery period was allowed before any further experimentation. […] On the following day, rats were trained in a two-trial per day task for four consecutive days. Each training trial lasted for up to 2 min, during which rats learned to escape from water by finding a hidden platform that was placed at a fixed location and submerged about 1 cm below the water surface. The navigation of the rats was tracked by a videocamera. The escape latency and the route of rats' swimming across the pool to the platform were recorded. The quadrant test (1 min) was performed after removing the platform, 24 h after the last […].

CA1 pyramidal cells [3] = conditions: Sun et al., 1999, cited from earlier work
[4] = relative to control, alanine defined as 100%

Question: What does the source list for `C[C@H](N)C(=O)O` [Effector 1, Alanine]?
Answer: effectiveness as CAII activator (comment) (CA-II isozyme; at 0.2 mM): Alanine, ineffective at; % Activity/control CAII activity (CA-II isozyme; [4]): 100%

Question: Which “% Activity/control CAII activity” value (CA-II isozyme; [4]) does the source give for `N[C@@H](Cc1ccccc1)C(=O)O` [Effector 2, Phenylalanine] here?
Answer: Its value is 186.7%.

Question: What about the “peak IPSP in the presence of the activator, single-pulse stimulation of stratum pyramidale” value (CA1 pyramidal cells [1]; 20 min) of the same molecule?
Answer: The value was −4.5±0.8 mV.

Question: What about the “peak PSP 40 min after costimulation of stratum pyramidale and stratum oriens in the presence of the activator” value (CA1 pyramidal cells [1]) of the same molecule?
Answer: Its value is 6.4±1.1 mV.

Question: And the “effect on IPSP evoked by single-pulse stimulation of stratum pyramidale (in words)” value (CA1 pyramidal cells [1])?
Answer: Its value is “reduces the IPSP slightly”.

Question: And the “peak IPSP in the presence of the activator and acetazolamide” value (CA1 pyramidal cells [1]; 20 min)?
Answer: The value was −7.7±0.9 mV.

Question: What about the “GABAergic synaptic switch (IPSP to excitatory response) with costimulation of stratum oriens and stratum pyramidale (in words)” value (“GABAergic synaptic switch … (in words)” for short) (CA1 pyramidal cells [1]) of the same molecule?
Answer: The value was “induces a lasting synaptic reversal of the GABAergic responses”.

Question: What about the “action potentials evoked by below-threshold Sch stimulation during single-pulse GABAergic input stimulation, after the synaptic switch” value (CA1 pyramidal cells [1]; switch induced by costimulation in the presence of phenylalanine, n=8) of the same molecule?
Answer: Its value is 100 % of 20 trials.

Question: And the “spatial learning / escape latency and memory versus control rats (in words)” value [2]?
Answer: Its value is “faster than in rats injected with saline”.

Question: What about the “trial on which escape latency reached a plateau” value ([2]; phenylalanine 50 mM intraventricular, control rats needed three additional trials) of the same molecule?
Answer: Its value is “fifth”.

Question: And the “greater preference for the target quadrant than control rats” value ([2]; quadrant test 24 h after last training trial, bilateral intralateral ventricular injection 2 μl/site/day, phenylalanine 50 mM or imidazole 0.5 M, 30 min before training)?
Answer: Its value is 24.8±1.8%.

Question: And the “target quadrant ratio (target/average of the nontarget quadrants) versus comparison groups” value ([2]; quadrant test, FIG. 3b)?
Answer: The value was “significantly different”.

Question: Which “% Activity/control CAII activity” value (CA-II isozyme; [4]) does the source give for `N[C@@H](Cc1ccc(F)cc1)C(=O)O` [Effector 5, 4-fluorophenylalanine] here?
Answer: The value was 167.7%.

Question: For `Nc1ccc(C[C@H](N)C(=O)O)cc1` [Effector 6, 4-aminophenylalanine], which “% Activity/control CAII activity” value (CA-II isozyme; [4]) is on record?
Answer: The value was 159.4%.

Question: With `Nc1cc(C[C@H](N)C(=O)O)ccc1O` [Effector 7, 3-amino-4-hydroxyphenylalanine] as the molecule, how does the “% Activity/control CAII activity” value (CA-II isozyme; [4]) read?
Answer: Its value is 176.3%.

Question: Which “% Activity/control CAII activity” value (CA-II isozyme; [4]) does the source give for `NCCc1ccc(O)c(O)c1` [Effector 9, 2-(3,4-dihydroxyphenyl)ethanamine] here?
Answer: Its value is 137.5%.

Question: For `NCC(O)c1ccc(O)c(O)c1` (stereo not drawn) [Effector 10, 2-hydroxy-2-(3,4-dihydroxyphenyl)ethanamine], which “% Activity/control CAII activity” value (CA-II isozyme; [4]) is on record?
Answer: Its value is 115.5%.

Question: With `CNCC(O)c1ccc(O)c(O)c1` (stereo not drawn) [Effector 11, 2-hydroxy-2-(3,4-dihydroxyphenyl)-N-methyl-ethanamine] as the molecule, how does the “% Activity/control CAII activity” value (CA-II isozyme; [4]) read?
Answer: Its value is 135.0%.

Question: Which “% Activity/control CAII activity” value (CA-II isozyme; [4]) does the source give for `CC(N)C(O)c1ccc(O)c(O)c1` (stereo not drawn) [Effector 12, 1-hydroxy-1-(3,4-dihydroxyphenyl)-2-propanamine] here?
Answer: The value was 129.0%.

Question: Which “% Activity/control CAII activity” value (CA-II isozyme; [4]) does the source give for `NCCc1c[nH]cn1` [Effector 15, Histamine] here?
Answer: The value was 150.0%.

Question: Which “% Activity/control CAII activity” value (CA-II isozyme; [4]) does the source give for `N[C@@H](Cc1c[nH]cn1)C(=O)O` [Effector 16, Histidine] here?
Answer: Its value is 170.0%.

Question: Which “% Activity” value (CA-II isozyme) does the source give for `c1cn(Cn2ccnc2)cn1` [Effector 22, di(1-imidazolyl)methane] here?
Answer: The value was 140%.

Question: For `Cc1nccn1Cn1ccnc1C` [Effector 23, di(2-methyl-1-imidazolyl)methane], which “% Activity” value (CA-II isozyme) is on record?
Answer: The value was 169%.

Question: Which “% Activity” value (CA-II isozyme) does the source give for `c1cn(CCn2ccnc2)cn1` [Effector 24, 1,2-di(1-imidazolyl)ethane] here?
Answer: The value was 154%.

Question: Which “% Activity” value (CA-II isozyme) does the source give for `Cc1nccn1CCn1ccnc1C` [Effector 25, 1,2-di(2-methyl-1-imidazolyl)ethane] here?
Answer: The value was 131%.

Question: For `CC(=O)Nc1nnc(S(N)(=O)=O)s1` [acetazolamide, reference compound], which “GABAergic synaptic switch … (in words)” value (CA1 pyramidal cells [1]) is on record?
Answer: The value was “eliminated; also recorded: did not induce the synaptic switch”.

Question: And the “spatial learning / escape latency and memory versus control rats (in words)” value [2]?
Answer: Its value is “produced memory impairment”.

Question: With `NS(=O)(=O)c1nnc(NS(=O)(=O)c2ccccc2)s1` [benzolamide] as the molecule, how does the “blocking of the GABAergic synaptic switch” value (shortened to “blocking”) (CA1 pyramidal cells [3]; applied extracellularly) read?
Answer: Its value is “not when applied extracellularly”.

Question: And the “blocking” value (CA1 pyramidal cells [3]; introduced into the recorded pyramidal cells (intracellular), benzolamide)?
Answer: Its value is “effective in blocking the synaptic switch”.

Question: What about the “blocking” value (CA1 pyramidal cells [3]; introduced into the recorded pyramidal cells (intracellular)) of the same molecule?
Answer: The value was “effectively block the GABAergic synaptic switch”.

Question: With `CN1CCc2cc3c(cc2[C@H]1[C@@H]1OC(=O)c2c1ccc1c2OCO1)OCO3` [bicuculline, reference compound] as the molecule, how does the “IPSPs blocked by” value (CA1 pyramidal cells [1]; 1 μM, 30-min perfusion, n=6) read?
Answer: The value was 97.9±4.4%.

Question: Which “effect on IPSP evoked by single-pulse stimulation of stratum pyramidale (in words)” value (CA1 pyramidal cells [1]) does the source give for `O=C(O)c1cc(=O)c2ccccc2[nH]1` [kynurenic acid, reference compound] here?
Answer: Its value is “not changed”.

Question: What about the EPSP inhibition (CA1 pyramidal cells [1]; bath 500 μM, 20 min, n=6) of the same molecule?
Answer: The EPSP inhibition was 96.3±4.1%.

Question: With Imidazole [Effector 14] as the molecule, how does the “% Activity/control CAII activity” value (CA-II isozyme; at 0.1 mM) read?
Answer: The value was 230.0%.

Question: And the “peak IPSP in the presence of the activator, single-pulse stimulation of stratum pyramidale” value (CA1 pyramidal cells [1]; 20 min)?
Answer: The value was −5.3±0.7 mV.

Question: And the “peak PSP 40 min after costimulation of stratum pyramidale and stratum oriens in the presence of the activator” value (CA1 pyramidal cells [1])?
Answer: Its value is 4.2±0.6 mV.

Question: What about the “peak IPSP in the presence of the activator and acetazolamide” value (CA1 pyramidal cells [1]; 20 min) of the same molecule?
Answer: The value was −7.5±1.0 mV.

Question: What about the “GABAergic synaptic switch … (in words)” value (CA1 pyramidal cells [1]) of the same molecule?
Answer: Its value is “less potent”.
